The subject of data set [1] is K. pneumoniae urease activity (whole cell). In words: microbe, parasite or virus in culture. In kind it is cell-based, Klebsiella pneumoniae ATCC 33495. Conditions: for EC50: Klebsiella pneumoniae, read-out: EC50, half-maximal effective concentration required to suppress urease-dependent pH change.
The test system is the same in data set [2]. The data set is described as follows: Checkerboard analysis of Zn-AMA and AHA on urease activity. In kind it is cell-based, Klebsiella pneumoniae. To be noted: Zn-AMA 0 μM. As to the method:
To guide our exploration of the mode of action of Zn-AMA, we investigated whether a chemical-chemical interaction occurs with the urease inhibitor AHA. […] We subsequently performed inductively coupled plasma mass spectrometry (ICP-MS) analyses to evaluate the intracellular Ni^2+ and Zn^2+ content of K. pneumoniae.
K. pneumoniae whole-cell urease activity was determined with artificial urine containing 0.2% (w/v) casamino acids and 0.01% (w/v) phenol red in 96-well plates. For the growth of S. aureus in artificial urine, the medium was supplemented with 10% LB. After 20–24 hours of growth, bacteria were removed using 0.45 μm filter plates, and the final A550 of the medium was measured using a plate reader.
FIG S7 Evaluation of Zn-AMA as a direct inhibitor of urease. A) Checkerboard analysis of Zn-AMA and AHA on urease activity of K.
pneumoniae after growth for 24 h at 37 °C artificial urine. pH is represented by the color scale determined with phenol red. […]

For data set [3], the system named is NikA. The data set is classed as binding, Klebsiella pneumoniae. To be noted: 100 μM.
In another data set the test system is K. pneumoniae. The data set is classed as cell-based, Klebsiella pneumoniae. To be noted: for Growth curve (culture density): 50 μM.
Another data set deals with HEK293 cells. The data set is described as follows: HEK293 cytotoxicity assay (Cell Titer Glo 2.0). On the technique in general: In ATP-based viability assays light output follows the ATP content of the culture.
Data set [4] addresses NikA (Klebsiella pneumoniae, UniProt A6TFA3). In kind it is binding. To be noted: for n (stoichiometry, ITC) / ∆H / −T∆S / ∆G: 37 °C; for n (stoichiometry, ITC) / ∆H / −T∆S / -∆TS / ∆G: pH 7.5; for -∆TS: Fig S13, 37 °C; for Kd: read-out: KD for NikA (ITC), 25 mM Tris-HCl, 150 mM NaCl, 0.1% Triton X-100, pH 7.5, 37 °C; for fold improvement of affinity for NikA: relative to Zn-AMA.

The next data set deals with T1, urease (Klebsiella pneumoniae subsp. pneumoniae, UniProt A6TE40+A6TE41+A6TE42).
T1 construct: endogenous in cells; host or cells: Klebsiella pneumoniae (ATCC 33495), sonicated and cleared lysate
T1 sequence (A6TE41 whole entry): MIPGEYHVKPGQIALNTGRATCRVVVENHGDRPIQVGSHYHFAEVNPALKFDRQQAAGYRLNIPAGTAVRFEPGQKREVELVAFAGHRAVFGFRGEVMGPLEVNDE
T1 sequence (A6TE40 whole entry): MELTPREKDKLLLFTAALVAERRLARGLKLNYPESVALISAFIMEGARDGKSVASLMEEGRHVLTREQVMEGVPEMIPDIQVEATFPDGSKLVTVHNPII
T1 sequence (A6TE42 whole entry): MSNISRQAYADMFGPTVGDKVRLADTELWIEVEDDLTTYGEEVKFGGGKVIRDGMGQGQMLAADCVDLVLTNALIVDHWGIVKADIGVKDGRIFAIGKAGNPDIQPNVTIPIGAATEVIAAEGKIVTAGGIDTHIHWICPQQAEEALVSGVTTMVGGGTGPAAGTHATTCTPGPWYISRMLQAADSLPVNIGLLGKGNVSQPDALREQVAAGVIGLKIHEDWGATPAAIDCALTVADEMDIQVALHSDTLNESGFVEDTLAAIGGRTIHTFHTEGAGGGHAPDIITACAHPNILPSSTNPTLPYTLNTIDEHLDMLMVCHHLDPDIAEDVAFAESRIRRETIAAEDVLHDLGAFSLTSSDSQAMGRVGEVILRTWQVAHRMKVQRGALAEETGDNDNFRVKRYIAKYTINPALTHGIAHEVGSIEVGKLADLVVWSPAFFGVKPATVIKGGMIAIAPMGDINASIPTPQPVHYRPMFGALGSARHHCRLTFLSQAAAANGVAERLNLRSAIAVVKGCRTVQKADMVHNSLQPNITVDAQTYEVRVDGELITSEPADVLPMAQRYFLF
The data set is described as follows: Urease activity in cell-free extracts (NH3 release, indophenol-hypochlorite). The data set is classed as biochemical. As for the experimental part: The cells were subsequently lysed by sonication, and cell debris was removed with centrifugation (20,000 × g, 10 min). […] Liberated NH3 was quantified using the indophenol-hypocholorite reaction as previously described. The total amount of protein was quantified by Bradford assay using bovine serum albumin as standard. Each assay was performed in duplicate wells.
FIG S7 Evaluation of Zn-AMA as a direct inhibitor of urease. A) Checkerboard analysis of Zn-AMA and AHA on urease activity of K. […]
Dose- […]
response curves of fluorofamide, Zn-AMA, and AMA inhibiting the urease-catalyzed release of NH3 quantified with indophenol hypochlorite. The rates of NH3 production were measured over 20 min and were normalized to total protein concentration. Experiments were performed in duplicate. Individual replicates are shown as colored circles.

Setting [5] is: K. pneumoniae, artificial urine.

SMILES strings stand for the structures. In brackets after ≈: the same amount, converted by molar mass. Several values for one entry are separate records, joined by “and”; a condition that tells them apart may be missing. Identical values can stand only once. Like-named read-outs stand apart in the source and are kept apart here. Peptide text beside a SMILES is read from it. * marks the point of attachment. Cbz = O=C(OCc1ccccc1)*

NikA (Klebsiella pneumoniae, UniProt A6TFA3), sequence (A6TFA3 entry or part of it): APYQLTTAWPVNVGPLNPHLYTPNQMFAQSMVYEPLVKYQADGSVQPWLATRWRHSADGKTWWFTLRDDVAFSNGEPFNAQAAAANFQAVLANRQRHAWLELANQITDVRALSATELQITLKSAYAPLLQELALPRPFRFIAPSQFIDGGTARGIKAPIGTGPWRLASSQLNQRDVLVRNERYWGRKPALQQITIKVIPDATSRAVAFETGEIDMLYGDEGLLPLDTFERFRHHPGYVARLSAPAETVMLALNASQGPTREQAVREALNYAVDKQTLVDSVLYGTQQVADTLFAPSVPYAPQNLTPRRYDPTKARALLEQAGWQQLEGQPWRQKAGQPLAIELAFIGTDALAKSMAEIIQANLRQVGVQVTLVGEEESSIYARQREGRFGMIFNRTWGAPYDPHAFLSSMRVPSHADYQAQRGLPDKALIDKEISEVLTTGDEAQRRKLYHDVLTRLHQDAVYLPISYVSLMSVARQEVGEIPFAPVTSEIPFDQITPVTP

Regarding `CC(=O)NO` [AHA, acetohydroxamic acid, reference compound], the “concentration required to achieve similar urease suppression” value in data set [1] (K. pneumoniae, artificial urine, 24 h) was found to be 12.8 mM. The “Urease-dependent pH change (pH)” value in data set [2] (AHA 0.1 mM) stood at 7.94; in data set [2] (AHA 0.2 mM), 8.07; in data set [2] (AHA 0.4 mM), 7.88; in data set [2] (AHA 0.5 mM), 8.25; in data set [2] (AHA 0.8 mM), 7.28; in data set [2] (AHA 1.6 mM) it was 6.77.

With `[Cl-].[Cl-].[Co+2]` [Co^2+, CoCl2], the “effect on stability of recombinant NikA” value in the data set with NikA [3] is “did not affect it”.

With `CC(=NO)C(C)=NO` [DMG, dimethylglyoxime, reference compound], the “Growth curve (culture density)” value with K. pneumoniae (15.15 h) was 0.125 and 0.12; in the data set on K. pneumoniae (16.15 h), 0.131 and 0.126; with K. pneumoniae (17.15 h), 0.14 and 0.136. In addition, in the data set on K. pneumoniae (Chelex-treated nitrogen-limited medium), the “growth with urea as sole nitrogen source” value is “did not”.

Consider `CC(C)C[C@@H](C=O)NC(=O)[C@H](CC(C)C)NC(=O)[C@H](CC(C)C)NC(=O)OCc1ccccc1` [MG132, reference compound] (Cbz-Leu-Leu-Leu-aldehyde), for which the IC50 (as a rule, the midpoint of a concentration-inhibition curve) with HEK293 cells (Homo sapiens, HEK293, 48 h, read-out: IC50 (HEK293 viability)) was 0.144 µg/mL (≈ 0.303 µM). For the same compound, the “HEK 293T cytotoxicity assay raw signal” value with HEK293 cells (MG-132 0.06 μg/mL) was 553546 and 645337 and 439066; with HEK293 cells (MG-132 0.12 μg/mL) it was 287630 and 290638 and 251825; with HEK293 cells (MG-132 0.24 μg/mL) it was 228174 and 211174 and 145724; in the data set on HEK293 cells (MG-132 0.49 μg/mL) it was 127375 and 103739 and 100640; with HEK293 cells (MG-132 0.98 μg/mL), 76026 and 78297 and 72041; in the data set on HEK293 cells (MG-132 1.95 μg/mL) it was 47803 and 50917 and 47518. The “HEK 293T cytotoxicity assay raw signal” value with HEK293 cells (MG-132 7.81 μg/mL) is 52239 and 45457 and 61991; with HEK293 cells (MG-132 15.63 μg/mL), 62587 and 49620 and 71962; with HEK293 cells (MG-132 31.25 μg/mL), 50870 and 51533 and 85262.

On to `[Cl][Ni][Cl]` [Ni^2+, NiCl2], for which, in the data set on NikA [3], the “effect on stability of recombinant NikA” value is “did not affect it”.

For the compound `NC(=O)C[C@H](NC[C@H](NC[C@H](N)C(=O)O)C(=O)O)C(=O)O.[Zn+2]` [Zn-AMA(Asn)], the “Urease-dependent pH change (pH)” value was 7.81 and 7.93 and 7.88 and 7.95 in data set [1]; 7.83 and 7.99 in data set [1] (Zn-AMA(Asn) 0.19 μM); 7.94 and 7.95 in data set [1] (Zn-AMA(Asn) 0.39 μM); 7.74 and 7.82 in data set [1] (Zn-AMA(Asn) 3.12 μM); 7.67 and 7.74 in data set [1] (Zn-AMA(Asn) 6.25 μM); 7.43 and 7.67 in data set [1] (Zn-AMA(Asn) 12.5 μM). The “Urease-dependent pH change (pH)” value is 7.11 and 7.36 in data set [1] (Zn-AMA(Asn) 25 μM); 6.62 and 7.12 in data set [1] (Zn-AMA(Asn) 50 μM); 6.33 and 6.91 in data set [1] (Zn-AMA(Asn) 100 μM); 6.43 and 6.83 in data set [1] (Zn-AMA(Asn) 200 μM). For the same compound, the EC50 in data set [1] (setting [5]) was 24 ± 6 µM. In addition, the “n (stoichiometry, ITC)” value on NikA [4] is on record as 1.14. The “∆H” value on NikA [4] was -13.1 kcal/mol. At NikA [4], the “−T∆S” value is 4.7 kcal/mol. Besides, at NikA [4], the “-∆TS” value stood at 4.73. In addition, the Kd (as a rule, a measure of binding affinity in units of concentration) at NikA [4] turned out to be 1.3 ± 0.1 µM. On NikA [4], the “fold improvement of affinity for NikA” value amounted to 7 fold.

For `N[C@@H](CN[C@@H](CN[C@@H](Cc1cnc[nH]1)C(=O)O)C(=O)O)C(=O)O.[Zn+2]` [Zn-AMA(His)], the “Urease-dependent pH change (pH)” value in data set [1] is 7.86 and 7.89 and 7.93 and 7.91; in data set [1] (Zn-AMA(His) 0.19 μM), 7.92 and 7.89; in data set [1] (Zn-AMA(His) 0.39 μM), 7.95 and 7.91; in data set [1] (Zn-AMA(His) 3.12 μM), 7.87 and 7.86; in data set [1] (Zn-AMA(His) 6.25 μM), 7.78 and 7.90; in data set [1] (Zn-AMA(His) 12.5 μM), 7.75 and 7.83. The “Urease-dependent pH change (pH)” value in data set [1] (Zn-AMA(His) 25 μM) is 7.73 and 7.87; in data set [1] (Zn-AMA(His) 50 μM), 7.68 and 7.86; in data set [1] (Zn-AMA(His) 100 μM), 7.57 and 7.81; in data set [1] (Zn-AMA(His) 200 μM), 7.66 and 7.82. Further, the EC50 in data set [1] (setting [5]) is over 200 µM. For the same compound, on NikA [4], the “n (stoichiometry, ITC)” value stood at 0.76. The “∆H” value on NikA [4] is -13.1 kcal/mol. Also, the “−T∆S” value at NikA [4] amounted to 4.5 kcal/mol. In addition, the “-∆TS” value at NikA [4] is on record as 4.48. The dissociation constant Kd on NikA [4] was 0.8 ± 0.1 µM. The “fold improvement of affinity for NikA” value on NikA [4] is 7 fold.

As to `N[C@@H](CN[C@@H](CC(=O)O)C(=O)O)C(=O)O.[Zn+2]` [Zn-Toxin A], the “Urease-dependent pH change (pH)” value in data set [1] (Zn-Toxin A 0.19 μM) is 7.83 and 7.80; in data set [1] (Zn-Toxin A 0.39 μM) it was 7.83 and 7.88; in data set [1] (Zn-Toxin A 0.78 μM), 7.88 and 7.78; in data set [1] (Zn-Toxin A 1.56 μM), 7.66 and 7.81; in data set [1] (Zn-Toxin A 3.12 μM), 7.79 and 7.72; in data set [1] (Zn-Toxin A 6.25 μM), 7.83 and 7.77. In addition, the “Urease-dependent pH change (pH)” value was 7.84 and 7.79 in data set [1] (Zn-Toxin A 12.5 μM); 7.79 and 7.82 in data set [1] (Zn-Toxin A 25 μM); 7.77 and 7.81 in data set [1] (Zn-Toxin A 50 μM); 7.79 and 7.77 in data set [1] (Zn-Toxin A 100 μM); 7.66 and 7.69 in data set [1] (Zn-Toxin A 200 μM). The “n (stoichiometry, ITC)” value on NikA [4] was 1.15. The “∆G” value at NikA [4] is -7.4 kcal/mol; on NikA [4] (listed as Zn-toxin A) it was -7.41 kcal/mol. Moreover, the results for the “∆H” value on NikA [4] and on NikA [4] (listed as Zn-toxin A) were -9.6 kcal/mol and -9.61 kcal/mol, respectively. In addition, the “−T∆S” value on NikA [4] amounted to 2.2 kcal/mol. Moreover, the “-∆TS” value on NikA [4] is 2.20. Also, the dissociation constant (Kd) on NikA [4] came to 6 ± 0.8 µM.

`NP(N)(=O)NC(=O)c1ccc(F)cc1` [fluorfamide, reference compound]: the “Specific activity (cell-free indophenol urease assay)” value on urease (Fluorofamide 0.000122 mM) is 36.97 nmol/min/mg and 30.98 nmol/min/mg; on urease (Fluorofamide 0.000244 mM) it was 36.32 nmol/min/mg and 35.04 nmol/min/mg; at urease (Fluorofamide 0.000488 mM), 34.40 nmol/min/mg and 35.26 nmol/min/mg; at urease (Fluorofamide 0.000977 mM), 30.98 nmol/min/mg and 33.12 nmol/min/mg; on urease (Fluorofamide 0.001953 mM), 25.00 nmol/min/mg and 23.72 nmol/min/mg; at urease (Fluorofamide 0.003906 mM), 16.88 nmol/min/mg. For the same compound, the “Specific activity (cell-free indophenol urease assay)” value on urease (Fluorofamide 0.007813 mM) was 7.48 nmol/min/mg and 7.26 nmol/min/mg; on urease (Fluorofamide 0.015625 mM), 2.56 nmol/min/mg and 2.35 nmol/min/mg; at urease (Fluorofamide 0.03125 mM), 0.85 nmol/min/mg and 0.64 nmol/min/mg; at urease (Fluorofamide 0.0625 mM), 0.21 nmol/min/mg.
